Earlier results on 4 compounds are cited in patent US20110257197A1 (Nanjing Cavendish Bio-Engineering Technology Co., Ltd., priority 2008, published 2011).

For data set [1], the system named is rat. The following applies: i.v.
In data set [2] the test system is mice. Particulars: i.v.
Data set [3] deals with mice.
For data set [4] the following is noted: in vivo.
In data set [5] the test system is rats.
Data set [6] has as its system Scedosporium and Fusarium species. Particulars: in vitro.
Data set [7] deals with Aspergillus fungi. The following applies: in vitro.
Data set [8] concerns Candida species (including strains of Candida krusei, Candida glabrata, and Candida albicans resistant to fluconazole). The following applies: in vitro.
The test system of data set [9] is guinea pig. Particulars: indicates possibility of causing allergy.
Data set [10] relates to rodent. Particulars: two-year studies.
Data set [11] has as its system mice. The source holds these as a separate data set.
For data set [12], the system named is red blood cell. The following applies: i.v.
For data set [13] the following is noted: in vivo. The source holds these as a separate data set.
[14] abbreviates: listed as sulfobutyl ether β-cyclodextrin sodium.

Values after ≈ are worked out from the molar mass of the structure shown. “Also recorded” adds a separate entry of the source. Like-named read-outs stand apart in the source and are kept apart here.

For `CCO` [ethanol], the LD50 result in [1] was “ethanol, in rat, i.v. LD50 = 1973 mg/kg;”; in data set [2] it was 1440 mg/kg.
With `CC(O)CO` (stereo not shown) [propylene glycol], the LD50 entry in [1] is recorded as “i.v. LD50 ≧ 5000 mg/kg”. In addition, the “NOAEL of maternal toxicity in teratogenic sensitive period” value in data set [3] and in data set [5] was 1600 mg/kg/day. Ethanol could cause throughout. For the same compound, the “NOAEL of teratogenic toxicity” value in data set [3] and in data set [5] was 1600 mg/kg/day. Ethanol could cause throughout. For the same compound, the “long term fertility study” value in data set [4] is given as “studies showed that no abnormity had”.
For the compound `C[C@@H](c1ncncc1F)[C@](O)(Cn1cncn1)c1ccc(F)cc1F` [voriconazole], the “activity against other pathogenic fungi such as Scedosporium and Fusarium species” value in data set [6] is “in vitro activity”. The solubility in water was 200 µg/mL (≈ 573 µM) (pH 3) and “almost insoluble” (pH 7). The “activity against all tested Aspergillus fungi” value in [7] was “active”. Further, the “activity against Candida species” value in [8] is “active”.
With “sulfobutyl ether β-cyclodextrin sodium [SBECD]”, the “guinea pig maximization test (GPMT) result” value in [9] is “positive”. Also, the “carcinogenicity (pancreatic carcinoma)” value in [10] was “carcinogenic”. Also, the “dose at which the weight of mice was significantly decreased” value in [11] is 18 mg/kg/day or higher. Also, the LD50 result in [1] and in data set [2] was “LD50 > 2000 mg/kg” throughout. The “concentration of significant heamolysis” value is “at 0.04 mg/ml” in data set [12] and 40000 ng/mL in data set [12] (setting [14]). In addition, the “concentration at which mild hemolysis occurs” value in [12] (setting [14]) is 20000 ng/mL. Also, the “findings on repeated administration” value in data set [13] is “vacuale formation in the urinary-tract epithelium; also recorded: activated macrophages in liver and lung”.

One may read the LD50 as the dose at which mortality reaches 50%.
